Source: patent US11332459B2 (TEIJIN PHARMA LIMITED, priority 2017, dated 2022)
Where a name gives a salt, the structure may show the parent alone.

Target: T1, human TRPC6 (Homo sapiens, UniProt Q9Y210)
T1 construct: expressed in transfected cells
T1 sequence (Q9Y210 1-931): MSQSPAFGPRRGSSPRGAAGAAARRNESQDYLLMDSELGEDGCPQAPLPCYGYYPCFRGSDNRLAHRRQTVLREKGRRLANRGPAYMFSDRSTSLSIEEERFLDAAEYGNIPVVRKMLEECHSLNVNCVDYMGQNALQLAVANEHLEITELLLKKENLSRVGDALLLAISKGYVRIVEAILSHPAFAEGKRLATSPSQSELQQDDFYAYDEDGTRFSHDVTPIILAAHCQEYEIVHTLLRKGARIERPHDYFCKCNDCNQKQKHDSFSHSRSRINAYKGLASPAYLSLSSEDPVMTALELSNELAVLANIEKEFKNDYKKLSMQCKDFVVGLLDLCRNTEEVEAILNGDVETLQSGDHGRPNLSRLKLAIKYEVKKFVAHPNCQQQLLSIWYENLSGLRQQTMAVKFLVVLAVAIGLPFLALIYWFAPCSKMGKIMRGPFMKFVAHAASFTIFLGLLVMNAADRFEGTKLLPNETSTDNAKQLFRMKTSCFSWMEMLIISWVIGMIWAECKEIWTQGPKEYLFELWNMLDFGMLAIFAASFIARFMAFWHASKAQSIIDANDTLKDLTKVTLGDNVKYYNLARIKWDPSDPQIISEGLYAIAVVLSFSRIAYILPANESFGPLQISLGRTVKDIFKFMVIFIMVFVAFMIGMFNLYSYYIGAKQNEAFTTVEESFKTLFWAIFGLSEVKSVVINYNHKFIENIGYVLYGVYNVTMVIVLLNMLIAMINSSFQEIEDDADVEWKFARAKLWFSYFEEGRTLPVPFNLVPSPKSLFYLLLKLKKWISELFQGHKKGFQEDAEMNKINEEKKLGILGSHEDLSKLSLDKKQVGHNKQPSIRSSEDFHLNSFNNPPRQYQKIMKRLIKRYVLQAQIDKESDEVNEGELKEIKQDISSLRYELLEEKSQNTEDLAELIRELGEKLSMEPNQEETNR
Assay: TRPC6 calcium flux assay (FLIPR, OAG-stimulated calcium influx)
Format: cell-based
Details: HEK293 cells stably transfected with human TRPC6, read-out: hTRPC6 Potency
How it was run: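 IC50 derived by plotting background-corrected peak fluorescence (180 s window, normalized to OAG-triggered signal vs buffer) against dose. Stable human TRPC6 HEK293 line was dye-loaded, exposed to compound 25 min, then challenged with 50 uM final OAG in 2 mM Ca2+ HEPES buffer pH 7.2, 0.5% DMSO.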

| SMILES | IC50 |
| --- | --- |
| Cc1nc(-c2ccccc2)sc1Cn1c(N2CC[C@@H](F)[C@H](N)C2)nc2cc(F)ccc21 [Example 593, (3R,4R)-4-fluoro-1-(5-fluoro-1-((4-methyl-2-phenylthiazol-5-yl)methyl)-1H-benzo[d]imidazol-2-yl)piperidin-3-amine] | 2120 nM |
| COc1cnc(Cn2c(N3CC[C@@H](F)[C@H](N)C3)nc3ccccc32)nc1 [Example 194, (3R,4R)-4-fluoro-1-(1-((5-methoxypyrimidin-2-yl)methyl)-1H-benzo[d]imidazol-2-yl)piperidin-3-amine] | 14.2 nM |
| CN[C@H]1CCCN(c2nc3ccc(C(F)(F)F)cc3n2Cc2ccc(C#N)cn2)C1 [Example 139, 6-((2-((3S)-3-(methylamino)-1-piperidinyl)-6-(trifluoromethyl)-1H-benzimidazol-1-yl)methyl)-3-pyridinecarbonitrile] | 1.91 nM |
| CS(=O)(=O)c1ccc2nc(N3CC[C@@H](F)[C@H](N)C3)n(Cc3ccc(Cl)cn3)c2c1 [Example 29, (3R,4R)-1-(1-((5-chloropyridin-2-yl)methyl)-6-(methylsulfonyl)-1H-benzo[d]imidazol-2-yl)-4-fluoropiperidin-3-amine] | 44.8 nM |
| CN(CC(F)(F)F)C(=O)Cn1c(N2CCC(F)(F)[C@H](N)C2)nc2ccc(F)cc21 [Example 465, (R)-2-(2-(3-amino-4,4-difluoropiperidin-1-yl)-6-fluoro-1H-benzo[d]imidazol-1-yl)-N-methyl-N-(2,2,2-trifluoroethyl)acetamide] | 86.7 nM |
| N#CCCN(C(=O)Cn1c(N2CC[C@@H](F)[C@H](N)C2)nc2cc(F)c(F)cc21)C1CCOCC1 [Example 656] | > 3750 nM |
| N[C@@H]1CN(c2nc3ccc(F)cc3n2CC(=O)NCC(F)(F)F)CC[C@H]1F [Example 661, 2-(2-((3R,4R)-3-amino-4-fluoropiperidin-1-yl)-6-fluoro-1H-benzo[d]imidazol-1-yl)-N-(2,2,2-trifluoroethyl)acetamide] | 279 nM |
| N[C@@H]1CN(c2nc3ccc(F)cc3n2CC(=O)N2CCOC[C@H]2CO)CC[C@H]1F [Example 686, 2-(2-((3R,4R)-3-amino-4-fluoropiperidin-1-yl)-6-fluoro-1H-benzo[d]imidazol-1-yl)-1-((R)-3-(hydroxymethyl)morpholino) ethan-1-one] | 1570 nM |
| N[C@@H]1CN(c2nc3cc(F)c(F)cc3n2CC(=O)N2CCN(C(=O)C3CC3)CC2)CC[C@H]1F [Example 531, 2-(2-((3R,4R)-3-amino-4-fluoropiperidin-1-yl)-5,6-difluoro-1H-benzo[d]imidazol-1-yl)-1-(4-(cyclopropanecarbonyl)piperazin-1-yl)ethan-1-one] | > 3750 nM |
| CN(CC(F)(F)F)C(=O)Cn1c(N2CC[C@@H](F)[C@H](N)C2)nc2cc(F)ccc21 [Example 460, 2-(2-((3R,4R)-3-amino-4-fluoropiperidin-1-yl)-5-fluoro-1H-benzo[d]imidazol-1-yl)-N-methyl-N-(2,2,2-trifluoroethyl)acetamide] | 24.2 nM |
| N[C@@H]1CN(c2nc3cc(OC(F)(F)F)ccc3n2CC(=O)N2CCOCC2)CC[C@H]1F [Example 475, 2-(2-((3R,4R)-3-amino-4-fluoropiperidin-1-yl)-5-(trifluoromethoxy)-1H-benzo[d]imidazol-1-yl)-1-morpholinoethan-1-one] | 620 nM |
| N[C@H]1CCCN(c2nc3ccccc3n2Cc2ccc(F)cc2)C1 [Example 368, (S)-1-(1-(4-fluorobenzyl)-1H-benzo[d]imidazol-2-yl)piperidin-3-amine] | 99.2 nM |
| N[C@@H]1CN(c2nc3ccc(F)cc3n2CC(=O)N2CCC2)CC[C@H]1F [Example 503, 2-(2-((3R,4R)-3-amino-4-fluoropiperidin-1-yl)-6-fluoro-1H-benzo[d]imidazol-1-yl)-1-(azetidin-1-yl)ethan-1-one] | 25.6 nM |
| Cc1nnc(Cn2c(N3CC[C@@H](F)[C@H](N)C3)nc3cc(F)c(F)cc32)o1 [Example 571, (3R,4R)-1-(5,6-difluoro-1-((5-methyl-1,3,4-oxadiazol-2-yl)methyl)-1H-benzo[d]imidazol-2-yl)-4-fluoropiperidin-3-amine] | 93.2 nM |
| Cc1cccc2c1nc(N1CC[C@@H](F)[C@H](N)C1)n2Cc1ccc(C#N)cn1 [Example 121, 6-((2-((3R,4R)-3-amino-4-fluoro-1-piperidinyl)-4-methyl-1H-benzimidazol-1-yl)methyl)-3-pyridinecarbonitrile] | 5.59 nM |
| CC[C@@H](c1ccc(C#N)cn1)n1c(N2CCC[C@H](N)C2)nc2ccccc21 [Example 300, 6-((S)-1-(2-((S)-3-aminopiperidin-1-yl)-1H-benzo[d]imidazol-1-yl)propyl)nicotinonitrile hydrochloride] | 406 nM |
| N[C@@H]1CN(c2nc3ccc(F)cc3n2CC(=O)N2CCOC[C@@H]2C2CC2)CC[C@H]1F [Example 685, 2-(2-((3R,4R)-3-amino-4-fluoropiperidin-1-yl)-6-fluoro-1H-benzo[d]imidazol-1-yl)-1-((S)-3-cyclopropylmorpholino)ethan-1-one] | 1160 nM |
| C[C@H](c1ccc(C#N)cc1)n1c(N2CCC[C@@H](N)C2)nc2ccccc21 [Example 398, 4-((R)-1-(2-((R)-3-aminopiperidin-1-yl)-1H-benzo[d]imidazol-1-yl)ethyl)benzonitrile] | 87.4 nM |
| N[C@@H]1CN(c2nc3cc(F)c(F)cc3n2CC(=O)N2CCNC(=O)C2)CC[C@H]1F [Example 528, 4-(2-(2-((3R,4R)-3-amino-4-fluoropiperidin-1-yl)-5,6-difluoro-1H-benzo[d]imidazol-1-yl)acetyl)piperazin-2-one] | > 3750 nM |
| C[C@]1(N)CCCN(c2nc3ccccc3n2Cc2ccc(C#N)cn2)C1 [Example 141, 6-((2-((3S)-3-amino-3-methyl-1-piperidinyl)-1H-benzimidazol-1-yl)methyl)-3-pyridinecarbonitrile] | 13.5 nM |
| N#Cc1ccc(Cn2c(N3CC[C@@H](F)[C@H](N)C3)nc3c(C#N)cc(F)cc32)nc1 [Example 18, 2-((3R,4R)-3-amino-4-fluoropiperidin-1-yl)-1-((5-cyanopyridin-2-yl)methyl)-6-fluoro-1H-benzo[d]imidazole-4-carbonitrile] | 7.85 nM |
| N[C@@H]1CN(c2nc3cc(F)c(F)cc3n2CC(=O)N2CCOC3CCOCC32)CC[C@H]1F (mixture of isomers) [Example 620, 2-(2-((3R,4R)-3-amino-4-fluoropiperidin-1-yl)-5,6-difluoro-1H-benzo[d]imidazol-1-yl)-1-(hexahydropyrano[4,3-b][1,4]oxazin-4(7H)-yl)ethanone] | 60.4 nM |
| N#Cc1cnc(Cn2c(N3CCC(F)(F)[C@H](N)C3)nc3ccc(Cl)cc32)cn1 [Example 233, (R)-5-((2-(3-amino-4,4-difluoropiperidin-1-yl)-6-chloro-1H-benzo[d]imidazol-1-yl)methyl)pyrazine-2-carbonitrile] | 1.47 nM |
| N[C@@H]1CN(c2nc3cc(F)c(F)cc3n2C2CCN(c3ccc(Cl)cc3)C2=O)CC[C@H]1F (mixture of isomers) [Example 240, 3-(2-((3R,4R)-3-amino-4-fluoropiperidin-1-yl)-5,6-difluoro-1H-benzo[d]imidazol-1-yl)-1-(4-chlorophenyl)pyrrolidin-2-one] | 10.7 nM |
| CN[C@@H]1CCCN(c2nc3ccccc3n2Cc2ccc(C#N)cn2)C1 [Example 117, 6-((2-((3R)-3-(methylamino)-1-piperidinyl)-1H-benzimidazol-1-yl)methyl)-3-pyridinecarbonitrile] | > 3750 nM |
